Reference: ChEMBL document CHEMBL1143403, “Location of persisting mycobacteria in a Guinea pig model of tuberculosis revealed by r207910” (2007)

How the values were obtained:
[1] = test system: Mycobacterium tuberculosis; assay type: functional; settings: dose 10 mg/kg; route oral
[2] = test system: Mycobacterium tuberculosis; assay type: functional, Spleen; settings: dose 15 mg/kg; route oral
[3] = test system: Mycobacterium tuberculosis; assay type: functional; settings: dose 15 mg/kg; route oral
[4] = test system: Mycobacterium tuberculosis; assay type: functional; settings: dose 5 mg/kg; route oral
[5] = test system: Mycobacterium tuberculosis; assay type: functional, Spleen; settings: dose 5 mg/kg; route oral
[6] = test system: Mycobacterium tuberculosis; assay type: functional, Spleen; settings: dose 10 mg/kg; route oral

Compound COc1nc2ccc(Br)cc2cc1[C@@H](c1ccccc1)[C@](O)(CCN(C)C)c1cccc(F)c1 has a CFU [1] of 251, a log10cfu [1] of 1.29 and a log10cfu [2] of 0.98. The CFU [3] was 46, the log10cfu [3] was 0.93 and the CFU [4] was 358. For the same compound, the log10cfu [4] was 2.27, the log10cfu [5] was 0.54 and the log10cfu [6] was 0.46.
